Laboratory results reported in patent US20230114123A1, “METHOD OF STIMULATING ASYMMETRIC DIVISION OF SATELLITE STEM CELLS” (Ottawa Hospital Research Institute, priority 2017, published 2023).

Tested on: EGFR phosphorylation
Test: p-EGFR immunoblot in serum-starved, re-fed primary myoblasts
Assay type: cell-based, mouse
Conditions: 1 h
Experimental: Cell Culture and Co-Immunoprecipitation. Satellite cells were isolated from WT mice by fluorescence activated cell sorting and cultured as primary myoblasts on collagen-coated plates in primary myoblast growth media (Ham's F10 media (Gibco) with 20% FBS (Wisent), 1% penicillin-streptomycin (Gibco) and 5 ng/mL bFGF (Cedarlane)).
Immunoblotting. Proteins were separated on 10% SDS-PAGE and transferred to Immobilon-P PVDF membrane (EMD Millipore). Membranes were probed with primary antibodies, followed by light chain specific HRP-conjugated secondary antibodies at 1:5000 (Bio-Rad) and developed using Immobilon Western HRP substrate (EMD Millipore). Membranes were visualized using FluorChem HD2 (Alpha Innotech) or exposed to BIOMAX film (Eastman Kodak).

For `CCc1oc2cc(S(=O)(=O)Nc3ccc(S(=O)(=O)Nc4nccs4)cc3)ccc2c1C(=O)c1cc(Br)c(O)c(Br)c1` [PTP1b inhibitor, 3-(3,5-dibromo-4-hydroxy-benzoyl)-2-ethyl-benzofuran-6-sulfonicacid-(4-(thiazol-2-ylsulfamyl)-phenyl)-amide, reference compound], the “increase in EGFR phosphorylation (p-EGFR grey values)” value (growth media alone, FIGS. 12A and 12B) was 80% and the “increase in EGFR phosphorylation (p-EGFR grey values)” value (in the presence of added recombinant EGF) was 20%.
